Where two headings read alike, the source gives them in different places.
Key:
[1] = tested on: BCR::ABL1^IS in patients with CML-CP treated with two or more prior TKIs; details: asciminib 40 mg b.i.d. vs bosutinib 500 mg q.d.; cited from earlier work
[2] = tested on: BCR::ABL1^IS levels in patients with CML-CP without the T315I mutation; test: Exposure-response efficacy; details: Cmin model
[3] = cited from earlier work
[4] = Concentration-QTcF analysis; type: in vivo, human
[5] = cited from earlier work; remark: listed apart in the source
[6] = asciminib 40 mg b.i.d. vs bosutinib 500 mg q.d.; cited from earlier work
[7] = Exposure-response safety; type: in vivo, human; details: for predicted probability of AST increase grade ≥ 2 event within a cycle: ASCEMBL study
[8] = TEAEs leading to dose reduction/interruption, time-dependent Cox regression; type: in vivo, human; details: 152 of 351 patients; pooled dose-finding and ASCEMBL
[9] = Population pharmacokinetics; parameters: species or system human

| Cmin lower for 80 mg q.d. compared with 40 mg b.i.d. [9] | increase in Cmax with 80 mg q.d. compared with 40 mg b.i.d. ([9]; based on PopPK) [%] | Compound | proportion of patients achieving MMR (BCR::ABL1^IS ≤ 0.1%) at 96 weeks [1] [%] | decrease in drug effect with a Cmin lower by 30% [2] [%] | Effmag (population mean, RSE) ([2]; patients without T315I) | decrease in exposure compared with the fasted state ([3]; high-fat meal) | decrease in exposure compared with the fasted state ([3]; low-fat meal) | estimated mean QTcF change from baseline ([4]; at Cmax of 40 mg b.i.d.) | estimated mean QTcF change from baseline ([4]; at Cmax of 80 mg q.d.) | estimated mean QTcF change from baseline ([4]; at Cmax of 200 mg b.i.d.) | estimated mean QTcF change from baseline ([4]; at the HCRE (highest clinically relevant exposure)) | increase in Cmax of asciminib when taken in combination with imatinib [5] [fold] | AEs leading to treatment discontinuation [6] [%] | grade ≥ 3 adverse events [6] [%] | predicted probability of AST increase grade ≥ 2 event within a cycle ([7]; 5-fold increase in geometric mean Cmax of 40 mg b.i.d.) [%] | predicted probability of AST increase grade ≥ 2 event within a cycle ([7]; geometric mean Cmax of 40 mg b.i.d.) [%] | relationship between asciminib exposure and the majority of the laboratory events analyzed ([7]; repeated measures logistic regression) | patients with TEAEs leading to dose reduction or dose interruption [8] [%] |
| --- | --- | --- | --- | --- | --- | --- | --- | --- | --- | --- | --- | --- | --- | --- | --- | --- | --- | --- |
| about 30% | 60 | O=C(Nc1ccc(OC(F)(F)Cl)cc1)c1cnc(N2CC[C@@H](O)C2)c(-c2ccn[nH]2)c1 [asciminib] | 37.6 | < 2 | 42.1 (3.4%) | approximately 65% | approximately 30% | 3.35 (90% CI 2.28–4.43) ms | 3.64 (90% CI 2.60–4.68) ms | 5.37 (90% CI 3.97–6.77) ms | 6.77 (90% CI 4.67–8.87) ms | 1.59 | 7.7 | 56.4 | 0.4 | 0.1 | no statistically significant relationship | 43.3 |
| – | – | COc1cc(Nc2c(C#N)cnc3cc(OCCCN4CCN(C)CC4)c(OC)cc23)c(Cl)cc1Cl [bosutinib] | 15.8 | – | – | – | – | – | – | – | – | – | 26.3 | 68.4 | – | – | – | – |
